Experimental data reported in patent US20210386768A1, “COMBINATION MEDICINE” (FUJIFILM Corporation, priority 2019, published 2021).

Assays:
Assay type in all cases: cell-based, human
[1] = tested on: Cell derived from FLT3-ITD mutation-positive leukemia patient; test: Proliferation inhibitory activity against cells derived from a leukemia patient by combined use (CellTiter-Glo, combination index), FLT3-ITD positive
Protocol: (§1) <Evaluation of Proliferation Inhibitory Activity Against Cell Derived from Leukemia Patient by Combined Use of Existing Anti-Cancer Agent>
(§2) Monocytes isolated from bone marrow or peripheral blood of two leukemia patients (one patient is FLT3-ITD mutation-positive, and the other patient is FLT3-ITD mutation-negative) were used and cultured in MethoCult™ H4534 Classic Without EPO (Cat. #H4534, manufacture by […] technologies). During this test, all cell cultures were performed in a CO2 incubator (setting: 37° C., 5% CO2, water vapor saturated). Cells were diluted with medium to 5,000 cells/well/90 μL and seeded on a 96-well plate.
(§3) After serially diluting with DMSO and further diluting with a medium, each of the test substance solutions having a concentration 10 times the final treatment concentration was prepared.
(§4) In addition, a group (a positive control group) in which only a solvent containing no drugs was added to a well in which cells were plated and a group (a negative control group) in which only a solvent containing no drugs was added to a well in which only a medium was added were prepared.
(§5) After the addition of the drug, cells were cultured for 7 or 8 days, and the cell viability was evaluated using CellTiter-Glo (registered trade mark) Reagent (Cat. #G7570, manufactured by Promega Corporation) using the amount of ATP in the cells as an indicator.
(§6) The suppression rate was determined by assuming that the amount of luminescence signal in the negative control group corresponded to the suppression of cell viability by 100% and the amount of luminescence signal in the positive control group corresponded to the suppression of cell viability by 0%. The concentration (IC50 value) at which cell viability is suppressed by 50% was calculated using XLFit (registered trade mark) software Ver. 3 (manufactured by ITOCHU Techno-Solutions Corporation). The suppression effect (Fa, the fraction affected by the dose) was calculated by dividing the suppression rate by 100.
(§7) The combination effect of the present invention was determined by calculating the combination index (CI), which is a quantitative indicator of the combination effect, using CalcuSyn (BIOSOFT) based on the value of the suppression effect.
(§8) In the table, “Fa around 0.5” and “Fa around 0.75” mean the effect of suppressing the cell viability by about 50% and about 75%, respectively, in a case where drugs are used in combination.

[2] = tested on: Cell derived from FLT3-ITD mutation-negative leukemia patient; test: Proliferation inhibitory activity against cells derived from a leukemia patient by combined use (CellTiter-Glo, combination index), FLT3-ITD negative
Protocol: as §1, §2, §3, §4, §5, §6, §7, §8

[3] = tested on: FLT3-ITD mutation-positive leukemia cell line MV-4-11; test: Proliferation inhibitory activity against MV-4-11 by combined use of anti-cancer agents (CellTiter-Glo, combination index)
Protocol: <Evaluation of Proliferation Inhibitory Activity Against FLT3-ITD Mutation-Positive Leukemia Cell Line MV-4-11 by Combined Use of Anti-Cancer Agent>
MV-4-11 cells which are a human FLT3-ITD mutation-positive leukemia cell line were subcultured in an RPMI-1640 medium containing 10% serum. During this test, all cell cultures were performed in a CO2 incubator (setting: 37° C., 5% CO2, water vapor saturated). Cells were diluted with a medium containing 10% serum to 1,000 cells/well/20 μL and seeded on a 384-well plate.
After being serially diluted with DMSO and further being diluted with a medium containing 10% serum, each of the test substance solutions having a concentration 10 times the final treatment concentration was prepared.
as §4
After the addition of the drug, cells were cultured for 3 days, and the cell viability was evaluated using CellTiter-Glo (registered trade mark) Reagent (Cat. #G7570, manufactured by Promega Corporation) using the amount of ATP in the cells as an indicator.
as §6, §7, §8

[4] = in combination with Compound A1
[5] = in combination with Compound A1, concentration fixing ratio A1:decitabine 1:10, A1:venetoclax 1:1, 7 or 8 days
[6] = in combination with Compound A1, MV-4-11

With Venetoclax the “combination effect in words, suppression effect around 0.5” value [1, 4] was “strong synergistic effect”, the “combination effect in words, suppression effect around 0.75” value [1, 4] was “strong synergistic effect” and the “combination index (CI), Fa around 0.5” value [1, 5] was “+++ (Less than 0.7, a strong synergistic effect)”. The “combination index (CI), Fa around 0.75” value [1, 5] was “+++ (Less than 0.7, a strong synergistic effect)”, the “combination effect in words, suppression effect around 0.5” value [2, 4] was “strong synergistic effect” and the “combination effect in words, suppression effect around 0.75” value [2, 4] was “strong synergistic effect”. The “combination index (CI), Fa around 0.5” value [2, 5] was “+++ (Less than 0.7, a strong synergistic effect)”, the “combination index (CI), Fa around 0.75” value [2, 5] was “+++ (Less than 0.7, a strong synergistic effect)” and the “combination index (CI), Fa around 0.5” value ([3]; in combination with Compound A1 (succinate salt), concentration fixing ratio A1:decitabine 1:3,000, A1:venetoclax 1:120, MV-4-11, 3 days, average of 4 experiments, about 50% suppression of cell viability) was “++ (0.7 or more and less than 0.85, a moderate synergistic effect)”. For the same substance, the “combination index (CI), Fa around 0.75” value ([3]; in combination with Compound A1 (succinate salt), concentration fixing ratio A1:decitabine 1:3,000, A1:venetoclax 1:120, MV-4-11, 3 days, average of 4 experiments, about 75% suppression of cell viability) was “+++ (Less than 0.7, a strong synergistic effect)”, the “combination effect in words, suppression effect around 0.5” value [3, 6] was “moderate synergistic effect” and the “combination effect in words, suppression effect around 0.75” value [3, 6] was “strong synergistic effect”.
